Test results reported in US20160297763A1, “Heteroaryl hydroxamic acid derivatives and their use in the treatment, amelioration or prevention of a viral disease” (priority 2011, published 2016).

Tested on: influenza A virus A/Aichi/2/68 (H3N2)
Assay: Cytopathic effect (CPE) assay H3N2
Format: cell-based, influenza A virus (H3N2) on MDCK cells
Settings: Influenza A virus, H3N2, activity conc 1 (μM per method); read-out: CPE H3N2 reduction (%)
Procedure: A possible measure of the […] antiviral activity of the compounds having the formula I or II is the CPE assay disclosed herein. […] In this connection, the reduction in the virus-mediated cytopathic effect (CPE) upon treatment with the compounds was calculated as follows: The cell viability of infected-treated and uninfected-treated cells was determined using an ATP-based cell viability assay (Promega). The response in relative luminescent units (RLU) of infected-untreated samples was subtracted from the response (RLU) of the infected-treated samples and then normalized to the viability of the corresponding uninfected sample resulting in % CPE reduction.
The influenza A virus (IAV) was obtained from American Tissue Culture Collection (A/Aichi/2/68 (H3N2); VR-547). Virus stocks were prepared by propagation of virus on Mardin-Darby canine kidney (MDCK; ATCC CCL-34) cells and infectious titres of virus stocks were determined by the 50% tissue culture infective dose (TCID50) analysis as described in Reed, L. J., and H. Muench. 1938, Am. J. Hyg. 27:493-497.
MDCK cells were seeded in 96-well plates at 2×10^4 cells/well using DMEM/Ham's F-12 (1:1) medium containing 10% foetal bovine serum (FBS), 2 mM L-glutamine and 1 antibiotics (all from PAA). Until infection the cells were incubated for 5 hrs at 37° C., 5.0 CO2 to form a ˜80% confluent monolayer on the bottom of the well. Each test compound was dissolved in DMSO and generally tested at 25 μM and 250 μM. In those cases where the compounds were not soluble at that concentration they were tested at the highest soluble concentration. The compounds were diluted in infection medium (DMEM/Ham's F-12 (1:1) containing 5 μg/ml trypsin, and 1% antibiotics) for a final plate well DMSO concentration of 1%. The virus stock was diluted in infection medium (DMEM/Ham's F-12 (1:1) containing 5 μg/ml Trypsin, 1% DMSO, and 1% antibiotics) to a theoretical multiplicity of infection (MOI) of 0.05.
After removal of the culture medium and one washing step with PBS, virus and compound were added together to the cells. In the wells used for cytotoxicity determination (i.e. in the absence of viral infection), no virus suspension was added. Instead, infection medium was added. Each treatment was conducted in two replicates. After incubation at 37° C., 5% CO2 for 48 hrs, each well was observed microscopically for apparent cytotoxicity, precipitate formation, or other notable abnormalities. Then, cell viability was determined using CellTiter-Glo luminescent cell viability assay (Promega). The supernatant was removed carefully and 65 μl of the reconstituted reagent were added to each well and incubated with gentle shaking for 15 min at room temperature. Then, 60 μl of the solution was transferred to an opaque plate and luminescence (RLU) was measured using Synergy HT plate reader (Biotek).
Relative cell viability values of uninfected-treated versus uninfected-untreated cells were used to evaluate cytotoxicity of the compounds. Substances with a relative viability below 80% at the tested concentration were regarded as cytotoxic and retested at lower concentrations.
Reduction in the virus-mediated cytopathic effect (CPE) upon treatment with the compounds was calculated as follows: The response (RLU) of infected-untreated samples was subtracted from the response (RLU) of the infected-treated samples and then normalized to the viability of the corresponding uninfected sample resulting in % CPE reduction.
In the case of `O=C(c1cc(C2=CCCCC2)ccn1)N(O)Cc1ccccc1` [drawing 257], the inhibition at 1 µM is reported as 3.4%.
For `O=C(c1cc(-c2ccccc2)ccn1)N(O)Cc1ccc(F)cc1` [drawing 223], the inhibition at 1 µM was -3.2%.

Same assay, conditions: Influenza A virus, H3N2, activity conc 2 (μM per method); read-out: CPE H3N2 reduction (%)
`O=C(NOCc1ccccc1)c1ccc(-c2ccccc2)cn1` [drawing 172] showed an inhibition at 2 µM of -4%.
With `CC(C)(C)OC(=O)N1C=C(c2ccnc(C(=O)N(O)Cc3ccccc3)c2)CCC1` the inhibition at 2 µM was 3.9%.
`O=C(c1cc2ccccc2cn1)N(O)CCCc1ccccc1` gave an inhibition at 2 µM of 4.4%.
For `O=C(c1cc(N2CCCCC2)ccn1)N(O)CCCc1ccccc1` [drawing 203], the inhibition at 2 µM was 7.7%.
Work on `CC(C)(C)OC(=O)N1C2C=C(c3ccnc(C(=O)N(O)Cc4ccccc4)c3)CC1CC2` (stereo not drawn) yielded an inhibition at 2 µM of -5.3%.

Same assay, conditions: Influenza A virus, H3N2, activity conc 5 (μM per method); read-out: CPE H3N2 reduction (%)
`CNC(=O)c1cccc(-c2ccnc(C(=O)N(O)Cc3ccccc3)c2)c1` gave an inhibition at 5 µM of -7.5%.
`O=C(NO)c1cc(N2CCCCC2)ccn1` gave an inhibition at 5 µM of -4.1%.
`O=C(c1cc(-c2ccc(Cl)c(Cl)c2)ccn1)N(O)Cc1ccccc1` [drawing 220] showed an inhibition at 5 µM of 8.1%.
`O=C(NOCc1ccccc1)c1cc2ccccc2cn1` [drawing 182] showed an inhibition at 5 µM of -1.5%.
Compound `O=C(c1cc2ccccc2cn1)N(Cc1ccccc1)OCc1ccccc1` [drawing 179] has an inhibition at 5 µM of 1.3%.
With `Cc1c(-c2ccccc2)sc2nc(NCCN)[nH]c(=O)c12` [SAV-7588] the inhibition at 5 µM was 2.2%.
For `O=C(c1ccc(N2CCCCC2)cn1)N(O)Cc1ccccc1` [drawing 208], the inhibition at 5 µM was -3.4%.
For `NC(=O)c1ccc(-c2ccnc(C(=O)N(O)Cc3ccccc3)c2)cc1` [drawing 232], the inhibition at 5 µM was -2.5%.
Work on `CN(C)S(=O)(=O)c1cccc(-c2ccnc(C(=O)N(O)Cc3ccccc3)c2)c1` [drawing 233] yielded an inhibition at 5 µM of -1.8%.
In the case of `CN(Cc1ccccc1)c1ccnc(C(=O)N(O)Cc2ccccc2)c1`, the inhibition at 5 µM is reported as 3.8%.
`O=C(c1ccc(N2CCCC2)cn1)N(Cc1ccccc1)OCc1ccccc1` [drawing 178] gave an inhibition at 5 µM of -2.7%.
`CN(c1ccnc(C(=O)NO)c1)S(=O)(=O)Cc1ccccc1` gave an inhibition at 5 µM of -1.7%.
Compound `O=C(c1cc(N2CCCCC2)ccn1)N(O)Cc1ccccc1` [drawing 183] has an inhibition at 5 µM of 1.1%.

Same assay, conditions: Influenza A virus, H3N2, activity conc 10 (μM per method); read-out: CPE H3N2 reduction (%)
For `Cc1cccc(-c2ccc(C(=O)N(O)Cc3ccccc3)nc2)c1` [drawing 181], the inhibition at 10 µM was 15.5%.
`O=C(c1cc(-c2ccccc2)ccn1)N(O)Cc1ccccc1` [drawing 211] showed an inhibition at 10 µM of -9.3%.

Same assay, conditions: Influenza A virus, H3N2, activity conc 12 (μM per method); read-out: CPE H3N2 reduction (%)
For `O=C(c1ccc(-c2ccccc2)cn1)N(O)Cc1ccccc1` [drawing 215], the inhibition at 12 µM was 13.4%.
`O=C(NO)c1ccc(-c2ccccc2)cn1` [drawing 216] gave an inhibition at 12 µM of 21.7%.

Same assay, conditions: Influenza A virus, H3N2, activity conc 20 (μM per method); read-out: CPE H3N2 reduction (%)
For `CCONC(=O)c1ccc(-c2cccc(CN(C)CCCc3ccccc3)c2)cn1`, the inhibition at 20 µM was 1.6%.

Same assay, conditions: Influenza A virus, H3N2, activity conc 50 (μM per method); read-out: CPE H3N2 reduction (%)
`NC1CCN(c2ccnc(C(=O)N(O)Cc3ccccc3)c2)CC1` showed an inhibition at 50 µM of 3.2%.
Work on `CCONC(=O)c1ccc2ccccc2n1` yielded an inhibition at 50 µM of -2.2%.
`O=C(c1cc(C2CCNCC2)ccn1)N(O)Cc1ccccc1` showed an inhibition at 50 µM of -1.4%.
In the case of `O=C(c1cc(C2=CC3CCC(C2)N3)ccn1)N(O)Cc1ccccc1` (stereo not drawn) [drawing 283], the inhibition at 50 µM is reported as 5.49%.
With `O=C(c1cc(NS(=O)(=O)Cc2cccc(C(F)(F)F)c2)ccn1)N(O)Cc1ccccc1` the inhibition at 50 µM was 22.4%.
For `CCONC(=O)c1ccccn1`, the inhibition at 50 µM was 12.5%.
With `Cc1cccc(C(=O)N(C)OCc2ccccc2)n1` the inhibition at 50 µM was -2.3%.
Work on `O=C(c1cc(NS(=O)(=O)c2ccccc2)ccn1)N(O)Cc1ccccc1` [drawing 213] yielded an inhibition at 50 µM of -5.2%.
Compound `O=C(NO)c1cc(NS(=O)(=O)Cc2cccc3cccnc23)ccn1` has an inhibition at 50 µM of 24.4%.
Work on `O=C(c1cc(NS(=O)(=O)Cc2ccccc2)ccn1)N(O)Cc1ccccc1` [drawing 209] yielded an inhibition at 50 µM of 6.2%.
In the case of `CN1CCN(c2ccnc(C(=O)N(C)O)c2)CC1`, the inhibition at 50 µM is reported as 2.6%.
Compound `O=C(NOC(=O)c1cc(N2CCCCC2)ccn1)c1cc(N2CCCCC2)ccn1` [drawing 160] has an inhibition at 50 µM of 29%.
Compound `CN(OCc1ccccc1)C(=O)c1ccc(-c2ccccc2)cn1` has an inhibition at 50 µM of -2.6%.
Work on `CN1CCN(c2ccnc(C(=O)N(O)Cc3ccccc3)c2)CC1` yielded an inhibition at 50 µM of 2.4%.
Work on `O=C(c1cc(N2CCC(F)(F)CC2)ccn1)N(O)Cc1ccccc1` yielded an inhibition at 50 µM of -3.2%.
With `CON(C)C(=O)c1ccc2ccccc2n1` the inhibition at 50 µM was -1.2%.
Compound `CN(O)C(=O)c1cc2ccccc2cn1` [drawing 199] has an inhibition at 50 µM of -0.6%.
`CN(C)C1CCN(c2ccnc(C(=O)N(O)Cc3ccccc3)c2)CC1` showed an inhibition at 50 µM of 12.3%.
With `CN(O)C(=O)c1cc(N2CCCCC2)ccn1` the inhibition at 50 µM was -0.9%.
Compound `N/C(=N\O)c1ccc(C(=O)NO)nc1` has an inhibition at 50 µM of -4.8%.
With `O=C(c1cc(C2=CCNCC2)ccn1)N(O)Cc1ccccc1` the inhibition at 50 µM was 0.4%.
In the case of `CN(C)C(=O)c1cccc(-c2ccnc(C(=O)N(O)Cc3ccccc3)c2)c1`, the inhibition at 50 µM is reported as 5.3%.
Work on `O=C(NO)c1cc(NS(=O)(=O)Cc2cccc(F)c2)ccn1` yielded an inhibition at 50 µM of -2.4%.

Same assay, conditions: Influenza A virus, H3N2, read-out: CPE H3N2 reduction (%), activity conc 5 (μM per method)
Compound `Cc1c(-c2ccccc2)sc2nc(Nc3ccccc3)[nH]c(=O)c12` [SAV-7638] has an inhibition at 5 µM of 8.7%.

Same assay, conditions: Influenza A virus, H3N2; read-out: CPE H3N2 IC50
Work on `O=C(NO)c1cc(NS(=O)(=O)Cc2cccc3cccnc23)ccn1` yielded an IC50 of 78 µM.
`O=C(NOC(=O)c1cc(N2CCCCC2)ccn1)c1cc(N2CCCCC2)ccn1` [drawing 160] gave an IC50 of 37 µM.

Same assay, conditions: activity conc 50 (μM per method)
With `Cl.O=C(NO)c1cc(NS(=O)(=O)Cc2cc(Cl)cc(Cl)c2)ccn1` [drawing 276] the “CPE H3N2 reduction (%)” value was 9.3%.
For `Cl.O=C(c1cc(N2CCOCC2)ccn1)N(O)Cc1ccccc1` [drawing 242], the “CPE H3N2 reduction (%)” value was 6.3%.

Tested on: not given
Assay: not given
Settings: not given
`CC(C)(C)OC(=O)N1CC=C(c2ccnc(C(=O)N(O)Cc3ccccc3)c2)CC1` gave a melting point of 125 °C.
Compound `Cc1cccc(-c2ccc(C(=O)N(O)Cc3ccccc3)nc2)c1` has a melting point of 139 to 140 °C.
In the case of `O=C(c1cc(C2CCCCC2)ccn1)N(O)Cc1ccccc1`, the melting point is reported as 106 to 110 °C.
Work on `Cc1c(-c2ccc(Cl)c(F)c2)sc2nc(N)[nH]c(=O)c12` yielded a melting point of 350 to 370 °C.
For `Cl.O=C(NO)c1cc(NS(=O)(=O)Cc2cccc(F)c2)ccn1`, the melting point was 195 to 200 °C.
With `Cc1c(-c2cc(C(F)(F)F)cc(C(F)(F)F)c2)sc2nc(N)[nH]c(=O)c12` the melting point was 344 to 347 °C.
`Cc1c(-c2ccccc2)sc2nc(Nc3ccccc3)[nH]c(=O)c12` showed a melting point of 270 to 290 °C.
Compound `Cc1c(-c2cc(C#N)ccc2F)sc2nc(N)[nH]c(=O)c12` has a melting point of 332 to 336 °C.
In the case of `O=C(c1cc(N2CCOCC2)ccn1)N(O)Cc1ccccc1`, the melting point is reported as 105 to 110 °C.
With `O=C(c1cc(C2=CC3CCC(C2)N3)ccn1)N(O)Cc1ccccc1` (stereo not drawn) the melting point was 95 to 100 °C.
Compound `Cc1c(-c2ccc(Cl)c(C(=O)N(C)C)c2)sc2nc(N)[nH]c(=O)c12` has a melting point of 300 to 320 °C.
`CC(c1ccccc1)c1cc2c(=O)[nH]c(N)nc2s1` (stereo not drawn) showed a melting point of 260 to 270 °C.
Compound `O=C(c1cc(NS(=O)(=O)Cc2ccccc2)ccn1)N(O)Cc1ccccc1` has a melting point of 190 to 195 °C.
`O=C(c1cc(-c2cccc(CO)c2)ccn1)N(O)Cc1ccccc1` showed a melting point of 150 to 155 °C.
For `CN(OCc1ccccc1)C(=O)c1cc2ccccc2cn1`, the melting point was 70 to 75 °C.
In the case of `Cl.O=C(c1cc(NS(=O)(=O)Cc2cccc(Cl)c2)ccn1)N(O)Cc1ccccc1`, the melting point is reported as 115 to 125 °C.
`Cc1cc(-c2sc3nc(N)[nH]c(=O)c3c2C)ccc1Cl` gave a melting point of 330 to 350 °C.
With `O=C(NO)c1ccc(-c2ccccc2)cn1` the melting point was 175 to 180 °C.
Work on `Cl.O=C(NO)c1cc(NS(=O)(=O)Cc2cccc(Br)c2)ccn1` yielded a melting point of 197 to 205 °C.
Compound `Cl.O=C(NO)c1cc(NS(=O)(=O)Cc2cccc(Cl)c2)ccn1` has a melting point of 198 to 204 °C.
Work on `Cl.O=C(NO)c1cc(NS(=O)(=O)Cc2ccc(Cl)c(Cl)c2)ccn1` yielded a melting point of 228 to 238 °C.
Compound `O=C(c1cc(N2CCC3(CC2)OCCO3)ccn1)N(O)Cc1ccccc1` has a melting point of 98 to 102 °C.
